Test results from ChEMBL document CHEMBL4007388, “Synthesis and antiproliferative activity of monocationic arylthiophene derivatives” (Eur J Med Chem, 2017).

Experiments:
[1] = system: HL-60(TB); experiment: Growth inhibition of human HL-60(TB) cells incubated for 48 hrs by sulforhodamine B assay; assay type: functional; conditions: HL-60, 48 h
[2] = system: SK-OV-3; experiment: Growth inhibition of human SKOV3 cells incubated for 48 hrs by sulforhodamine B assay; assay type: functional; conditions: SK-OV-3, 48 h
[3] = system: NCI-H322M; experiment: Growth inhibition of human NCI-H322M cells incubated for 48 hrs by sulforhodamine B assay; assay type: functional
[4] = system: 786-0; experiment: Growth inhibition of human 786-O cells incubated for 48 hrs by sulforhodamine B assay; assay type: functional; conditions: 786-0, 48 h
[5] = system: OVCAR-4; experiment: Growth inhibition of human OVCAR4 cells incubated for 48 hrs by sulforhodamine B assay; assay type: functional; conditions: OVCAR-4, 48 h
[6] = system: NCI/ADR-RES; experiment: Growth inhibition of human NCI/ADR-RES cells incubated for 48 hrs by sulforhodamine B assay; assay type: functional
[7] = system: SN12C; experiment: Growth inhibition of human SN12C cells incubated for 48 hrs by sulforhodamine B assay; assay type: functional
[8] = system: HT-29; experiment: Growth inhibition of human HT-29 cells incubated for 48 hrs by sulforhodamine B assay; assay type: functional; conditions: HT-29, 48 h
[9] = system: HCT-116; experiment: Growth inhibition of human HCT116 cells incubated for 48 hrs by sulforhodamine B assay; assay type: functional; conditions: HCT-116, 48 h
[10] = system: DU-145; experiment: Growth inhibition of human DU145 cells incubated for 48 hrs by sulforhodamine B assay; assay type: functional; conditions: DU-145, 48 h
[11] = system: UO-31; experiment: Growth inhibition of human UO31 cells incubated for 48 hrs by sulforhodamine B assay; assay type: functional; conditions: UO-31, 48 h
[12] = system: HCC 2998; experiment: Growth inhibition of human HCC2998 cells incubated for 48 hrs by sulforhodamine B assay; assay type: functional; conditions: HCC 2998, 48 h
[13] = system: OVCAR-8; experiment: Growth inhibition of human OVCAR8 cells incubated for 48 hrs by sulforhodamine B assay; assay type: functional; conditions: OVCAR-8, 48 h
[14] = system: CCRF-CEM; experiment: Growth inhibition of human CCRF-CEM cells incubated for 48 hrs by sulforhodamine B assay; assay type: functional
[15] = system: HCT-15; experiment: Growth inhibition of human HCT15 cells incubated for 48 hrs by sulforhodamine B assay; assay type: functional; conditions: HCT-15, 48 h
[16] = system: WISH; experiment: Cytotoxicity against human WISH cells assessed as reduction in cell viability after 24 hrs by MTT assay; assay type: cell-based
[17] = system: ACHN; experiment: Growth inhibition of human ACHN cells incubated for 48 hrs by sulforhodamine B assay; assay type: functional
[18] = system: Hs-578T; experiment: Growth inhibition of human Hs 578T cells incubated for 48 hrs by sulforhodamine B assay; assay type: functional
[19] = system: RXF 393; experiment: Growth inhibition of human RXF393 cells incubated for 48 hrs by sulforhodamine B assay; assay type: functional; conditions: RXF 393, 48 h
[20] = system: WI-38; experiment: Cytotoxicity against human WI38 cells assessed as reduction in cell viability after 24 hrs by MTT assay; assay type: cell-based; conditions: WI-38, 24 h
[21] = system: MDA-MB-468; experiment: Growth inhibition of human MDA-MB-468 cells incubated for 48 hrs by sulforhodamine B assay; assay type: functional; conditions: MDA-MB-468, 48 h
[22] = system: NCI-H226; experiment: Growth inhibition of human NCI-H226 cells incubated for 48 hrs by sulforhodamine B assay; assay type: functional; conditions: NCI-H226, 48 h
[23] = system: IGROV-1; experiment: Growth inhibition of human IGROV1 cells incubated for 48 hrs by sulforhodamine B assay; assay type: functional; conditions: IGROV-1, 48 h
[24] = system: MCF7; experiment: Growth inhibition of human MCF7 cells incubated for 48 hrs by sulforhodamine B assay; assay type: functional; conditions: MCF7, 48 h
[25] = system: HOP-62; experiment: Growth inhibition of human HOP62 cells incubated for 48 hrs by sulforhodamine B assay; assay type: functional; conditions: HOP-62, 48 h
[26] = system: SF-539; experiment: Growth inhibition of human SF539 cells incubated for 48 hrs by sulforhodamine B assay; assay type: functional; conditions: SF-539, 48 h
[27] = system: PC-3; experiment: Growth inhibition of human PC3 cells incubated for 48 hrs by sulforhodamine B assay; assay type: functional; conditions: PC-3, 48 h
[28] = system: RPMI-8226; experiment: Growth inhibition of human RPMI8226 cells incubated for 48 hrs by sulforhodamine B assay; assay type: functional; conditions: RPMI-8226, 48 h
[29] = system: CAKI-1; experiment: Growth inhibition of human Caki1 cells incubated for 48 hrs by sulforhodamine B assay; assay type: functional; conditions: CAKI-1, 48 h
[30] = system: SNB-19; experiment: Growth inhibition of human SNB19 cells incubated for 48 hrs by sulforhodamine B assay; assay type: functional; conditions: SNB-19, 48 h
[31] = system: M14; experiment: Growth inhibition of human M14 cells incubated for 48 hrs by sulforhodamine B assay; assay type: functional; conditions: M14, 48 h
[32] = system: COLO 205; experiment: Growth inhibition of human COLO205 cells incubated for 48 hrs by sulforhodamine B assay; assay type: functional; conditions: COLO 205, 48 h
[33] = system: BT-549; experiment: Growth inhibition of human BT549 cells incubated for 48 hrs by sulforhodamine B assay; assay type: functional; conditions: BT-549, 48 h
[34] = system: TK-10; experiment: Growth inhibition of human TK10 cells incubated for 48 hrs by sulforhodamine B assay; assay type: functional; conditions: TK-10, 48 h
[35] = system: HOP-92; experiment: Growth inhibition of human HOP92 cells incubated for 48 hrs by sulforhodamine B assay; assay type: functional; conditions: HOP-92, 48 h
[36] = Growth inhibition of human NCI60 cells at 10 uM after 48 hrs by SRB assay relative to control; values are per cent of control; conditions: NCI60, 48 h
[37] = system: OVCAR-5; experiment: Growth inhibition of human OVCAR5 cells incubated for 48 hrs by sulforhodamine B assay; assay type: functional; conditions: OVCAR-5, 48 h
[38] = Antioxidant activity assessed as superoxide dismutase-like activity by measuring inhibition of superoxide radical anion production at 2 uM by NBT reduction assay relative to control; assay type: functional
[39] = system: SR; experiment: Growth inhibition of human SR cells incubated for 48 hrs by sulforhodamine B assay; assay type: functional
[40] = system: SW-620; experiment: Growth inhibition of human SW620 cells incubated for 48 hrs by sulforhodamine B assay; assay type: functional; conditions: SW-620, 48 h
[41] = system: OVCAR-3; experiment: Growth inhibition of human OVCAR3 cells incubated for 48 hrs by sulforhodamine B assay; assay type: functional; conditions: OVCAR-3, 48 h
[42] = system: SK-MEL-2; experiment: Growth inhibition of human SK-MEL-2 cells incubated for 48 hrs by sulforhodamine B assay; assay type: functional; conditions: SK-MEL-2, 48 h
[43] = system: Malme-3M; experiment: Growth inhibition of human MALME-3M cells incubated for 48 hrs by sulforhodamine B assay; assay type: functional
[44] = system: SK-MEL-28; experiment: Growth inhibition of human SK-MEL-28 cells incubated for 48 hrs by sulforhodamine B assay; assay type: functional; conditions: SK-MEL-28, 48 h
[45] = system: K562; experiment: Growth inhibition of human K562 cells incubated for 48 hrs by sulforhodamine B assay; assay type: functional; conditions: K562, 48 h
[46] = system: Escherichia coli; experiment: Induction of Escherichia coli genomic DNA cleavage after 1 hr by agarose gel electrophoresis method
[47] = system: UACC-62; experiment: Growth inhibition of human UACC62 cells incubated for 48 hrs by sulforhodamine B assay; assay type: functional; conditions: UACC-62, 48 h
[48] = system: SF-268; experiment: Growth inhibition of human SF268 cells incubated for 48 hrs by sulforhodamine B assay; assay type: functional; conditions: SF-268, 48 h

Q: Which GI50 [1] does the source give for `COc1cc(OC)cc(-c2ccc(-c3ccc(C(=N)N)c(F)c3)s2)c1` here?
A: The GI50 was 229 nM.

Q: What about the GI50 [2] of the same compound?
A: The GI50 was 1640 nM.

Q: And the GI50 [3]?
A: The GI50 was 502 nM.

Q: And the GI50 [4]?
A: Its GI50 is 174 nM.

Q: What about the GI50 [5] of the same compound?
A: Its GI50 is 361 nM.

Q: And the GI50 [6]?
A: Its GI50 is 1590 nM.

Q: And the GI50 [7]?
A: Its GI50 is 712 nM.

Q: And the GI50 [8]?
A: The GI50 was 267 nM.

Q: And the GI50 [9]?
A: Its GI50 is 173 nM.

Q: And the GI50 [10]?
A: Its GI50 is 426 nM.

Q: What about the GI50 [11] of the same compound?
A: The GI50 was 473 nM.

Q: What about the GI50 [12] of the same compound?
A: The GI50 was 207 nM.

Q: What about the GI50 [13] of the same compound?
A: Its GI50 is 1200 nM.

Q: What about the GI50 [14] of the same compound?
A: The GI50 was 306 nM.

Q: What about the GI50 [15] of the same compound?
A: Its GI50 is 196 nM.

Q: What about the IC50 [16] of the same compound?
A: The IC50 was 115000 nM.

Q: What about the GI50 [17] of the same compound?
A: Its GI50 is 181 nM.

Q: And the GI50 [18]?
A: Its GI50 is 1470 nM.

Q: What about the GI50 [19] of the same compound?
A: The GI50 was 449 nM.

Q: And the IC50 [20]?
A: The IC50 was 123000 nM.

Q: And the GI50 [21]?
A: Its GI50 is 182 nM.

Q: What about the GI50 [22] of the same compound?
A: The GI50 was 1730 nM.

Q: And the GI50 [23]?
A: Its GI50 is 484 nM.

Q: What about the GI50 [24] of the same compound?
A: Its GI50 is 194 nM.

Q: What about the GI50 [25] of the same compound?
A: Its GI50 is 1610 nM.

Q: And the GI50 [26]?
A: The GI50 was 165 nM.

Q: And the GI50 [27]?
A: Its GI50 is 1300 nM.

Q: What about the GI50 [28] of the same compound?
A: The GI50 was 246 nM.

Q: What about the GI50 [29] of the same compound?
A: Its GI50 is 233 nM.

Q: And the GI50 [30]?
A: Its GI50 is 1030 nM.

Q: What about the GI50 [31] of the same compound?
A: The GI50 was 184 nM.

Q: And the GI50 [32]?
A: Its GI50 is 208 nM.

Q: What about the GI50 [33] of the same compound?
A: The GI50 was 1370 nM.

Q: What about the GI50 [34] of the same compound?
A: Its GI50 is 1780 nM.

Q: And the GI50 [35]?
A: The GI50 was 665 nM.

Q: And the growth percent at 10 µM [36]?
A: The growth percent at 10 µM was -77.8%.

Q: And the GI50 [37]?
A: The GI50 was 207 nM.

Q: And the inhibition [38]?
A: Its inhibition is 55.5%.

Q: And the GI50 [39]?
A: Its GI50 is 224 nM.

Q: What about the GI50 [40] of the same compound?
A: The GI50 was 212 nM.

Q: What about the GI50 [41] of the same compound?
A: Its GI50 is 815 nM.

Q: What about the GI50 [42] of the same compound?
A: Its GI50 is 1860 nM.

Q: What about the GI50 [43] of the same compound?
A: The GI50 was 195 nM.

Q: And the GI50 [44]?
A: Its GI50 is 176 nM.

Q: And the GI50 [45]?
A: The GI50 was 262 nM.

Q: What about the Activity [46] of the same compound?
A: Its Activity is “Dose-dependent effect”.

Q: And the GI50 [47]?
A: The GI50 was 1440 nM.

Q: What about the GI50 [48] of the same compound?
A: The GI50 was 1150 nM.
